Results on one compound are retold here after patent US20240166594A1, “PHOTOCAGED CITRULLINE ANALOGS AND METHODS FOR SITE-SPECIFIC INCORPORATION OF CITRULLINE INTO PROTEINS” (University of Massachusetts, priority 2021, published 2024).

The nature of data set [1]: Photodecaging to citrulline with 365 nm UV (HPLC, LC-MS, 1H NMR). The data set is classed as physicochemical. As to conditions: up to 5 min, PBS pH 7.4 with 2 mM DTT (SM70: 1:1 acetonitrile/PBS). An excerpt:
FIG. 1. SM60, a photocaged-citrulline and its conversion to citrulline with 365 nm UV light. a, Conversion of peptidyl-arginine to peptidyl-citrulline by the PADs. b, Chemical structures of SM60 and SM70. c, Schematic representation of the incorporation of SM60 into proteins by an engineered LeuRS-tRNA^Leu pair and subsequent conversion to citrulline. d, Decaging of SM60 to citrulline with 365 nm UV irradiation. Left and right panels indicate the HPLC and ion chromatograms, showing the disappearance of SM60 and the formation of citrulline (Cit), respectively, with increasing UV exposure. Quantitative analyses of decaging and Cit formation are shown in the insets. Assay mixture: 1 mM SM60, 2 mM DTT, Phosphate-buffered saline pH 7.4.
FIG. 8. ^1H NMR spectrum of SM60 in D2O after UV (365 nm) exposure for 1, 2, 3, 4 and 5 min. […] Furthermore, an upfield shift was also observed for the ‘b’ protons upon the formation of citrulline. The multiplets at 3.6-3.7 and 2.6-2.7 ppm are due to DTT used in the assay. Assay condition: 1 mM SM60, 2 mM DTT, D2O.
FIG. 9. (A) Photodecaging of Fmoc-SM60 to produce Fmoc-Cit. (B) HPLC chromatograms indicating the disappearance of Fmoc-SM60 and the production of Fmoc-Cit with increasing UV exposure. […] Assay mixture: 0.5 mM Fmoc-SM60, 2 mM DTT, Phosphate-buffered saline pH 7.4. ESI-Mass spectra of Fmoc-SM60 (C) and Fmoc-Cit (D).
FIG. 10. […]

The next data set has as its system HEK293T cells. Description: Cytotoxicity of SM60 in HEK293T cells (CellTiter-Blue). As to conditions: Homo sapiens, HEK-293T, 48 h, read-out: EC50 for inhibition of cell proliferation. The data set is classed as cell-based. The procedure:
HEK293T cells were seeded (2×10^4 cells/well) on a 96-well plate and grown in DMEM (supplemented with 10% heat-inactivated fetal bovine serum, 100 units/mL penicillin, 100 μg/mL streptomycin) for 48 h. Cells were then treated with DMSO (for control) or various concentrations of SM60. In a separate experiment, cells were briefly (3 min) irradiated with 365 nm UV following SM60 treatment and were allowed to grow at 37° C. for 48 h. Cell viability was measured using CellTiter-Blue® (Promega) by following the manufacturer's protocol. Equation 1,
Y=Bottom+(Top−Bottom)/[1+10^((log EC50−X)*Hillslope)] (1),
was used to fit a ten-point dose-response curve to determine the EC50 values for inhibition of cell-proliferation using GraphPad Prism 8.0. Top and Bottom are plateaus of the dose-response curve, X is the log of SM60-concentration, Hillslope is the slope factor or Hill slope. All the experiments were performed in triplicate.
On the technique in general: Resazurin is reduced to fluorescent resorufin, in cell work by metabolically active cells.

The test system of data set [2] is EcLeuRS-tRNACUA^EcLeu pair. As to the kind of experiment: EGFP-39-TAG reporter expression assay in HEK293T cells. As to conditions: EcLeuRS mutant (M40I, Y499I, Y527A, H529G, T252A). It is filed as cell-based. The text has this: The first two pairs are restricted to structural analogs of phenylalanine and tryptophan, respectively, precluding their use to genetically encode SM60. However, both the archaeal pyrrolysyl (PylRS/tRNA^Pyl) and E. coli leucyl (EcLeuRS-tRNACUA^EcLeu) pairs have been engineered to charge UAAs structurally similar to SM60. […] This property has provided a facile route to rapidly expand the repertoire of genetically encoded UAAs without having to engineer new aaRS mutants for each distinct substrate. To explore if such a polyspecific aaRS can accept SM60 as a substrate, several existing PylRS and EcLeuRS mutants were screened using an EGFP-39-TAG expression assay in HEK293T cells in the presence of their cognate amber suppressor tRNA. […] Furthermore, UV irradiation of cells expressing EGFP-39-SM60 before lysis followed by protein purification and MS analysis afforded a single protein mass consistent with the complete deprotection and incorporation of citrulline at position 39 of EGFP (FIG. 2d).
HEK293T cells were maintained at 37° C. in a humidified incubator supplemented with 5% CO2. […]
EGFP fluorescence was analyzed 48 h after transfection. […] Lysate were clarified by centrifugation at 16,000×g for 10 min and 100 μL of supernatant was transferred to a clear-bottom 96-well plate for fluorescence measurement following previously described protocol. […]

Read-outs that look alike come from different tables or passages of the source. Some results are limits rather than exact numbers.

In the case of `N[C@@H](CCCNC(=O)NCc1ccccc1[N+](=O)[O-])C(=O)O` [SM60], in data set [1], the “photodecaging / conversion to citrulline form” value is listed as “quantitatively converted to Cit”. In addition, the EC50 in the data set with HEK293T cells (SM60 alone) was > 10 mM; in the data set with HEK293T cells (combination of SM60 and 365 nm UV (3 min)) it was 4.5 ± 0.2 mM. Also, in data set [2], the EGFP-39-TAG reporter expression result is listed as “robust expression of the fluorescence reporter only when SM60 was supplemented in the medium”.
